{"source": "patent US7875599B2", "about": "“C-17-heteroaryl steroidal CYP17 inhibitors/antiandrogens, in vitro biological activities, pharmacokinetics and antitumor activity” (University of Maryland, priority 2005, dated 2011)", "key": {"[1]": {"target": "T1, human 5α-reductase type 1 (Homo sapiens, UniProt P18405)", "T1 sequence (P18405 1-259)": "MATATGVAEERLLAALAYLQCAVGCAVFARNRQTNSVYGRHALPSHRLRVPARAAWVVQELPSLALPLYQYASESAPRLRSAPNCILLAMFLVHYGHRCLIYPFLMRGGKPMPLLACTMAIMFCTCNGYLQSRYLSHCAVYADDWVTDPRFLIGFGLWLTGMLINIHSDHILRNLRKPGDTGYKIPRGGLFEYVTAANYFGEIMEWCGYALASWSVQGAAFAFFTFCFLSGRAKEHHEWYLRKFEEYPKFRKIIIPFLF", "assay": "Human 5α-reductase type 1 assay (DU-145 cell line)"}, "[2]": {"target": "T2, CYP17 (Homo sapiens, UniProt P05093)", "T2 sequence (P05093 1-508)": "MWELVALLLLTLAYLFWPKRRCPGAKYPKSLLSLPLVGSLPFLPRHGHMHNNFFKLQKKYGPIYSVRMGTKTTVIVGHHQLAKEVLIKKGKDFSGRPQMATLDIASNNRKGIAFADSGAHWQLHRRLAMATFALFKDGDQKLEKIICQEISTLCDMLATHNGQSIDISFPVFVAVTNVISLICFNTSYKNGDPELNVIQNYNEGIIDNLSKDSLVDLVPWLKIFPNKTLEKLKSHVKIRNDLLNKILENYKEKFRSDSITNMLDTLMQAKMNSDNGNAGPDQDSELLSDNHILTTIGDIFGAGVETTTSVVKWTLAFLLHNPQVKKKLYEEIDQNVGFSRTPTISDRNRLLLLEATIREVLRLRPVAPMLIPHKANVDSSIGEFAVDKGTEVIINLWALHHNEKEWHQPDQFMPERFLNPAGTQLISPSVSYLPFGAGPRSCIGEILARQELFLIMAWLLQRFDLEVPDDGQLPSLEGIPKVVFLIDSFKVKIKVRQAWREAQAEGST", "assay": "UV-vis difference spectroscopy, binding to heme iron of CYP17", "parameters": "peak position of Soret maximum of the enzyme complex: unit not given here"}, "[3]": {"target": "T3, human 5α-reductase type 2 (Homo sapiens, UniProt P31213)", "T3 sequence (P31213 1-254)": "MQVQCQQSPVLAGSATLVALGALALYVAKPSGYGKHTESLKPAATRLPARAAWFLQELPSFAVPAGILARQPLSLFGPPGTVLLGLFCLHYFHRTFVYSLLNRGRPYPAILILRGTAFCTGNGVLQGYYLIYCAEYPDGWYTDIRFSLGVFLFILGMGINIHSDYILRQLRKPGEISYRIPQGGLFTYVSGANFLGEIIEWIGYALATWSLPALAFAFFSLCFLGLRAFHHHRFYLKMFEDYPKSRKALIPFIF", "assay": "Human 5α-reductase type 2 assay (BPH tissue homogenate)", "settings": "for inhibition at 10 µM: read-out: 5α-Reductase type 2 % inhibition at 10 μM"}, "[4]": {"target": "T2, CYP17", "assay": "CYP17 inhibition, acetic acid releasing assay with intact P450c17-expressing E. coli"}, "[5]": {"tested_on": "LNCaP mutant AR-mediated transcription", "assay": "Luciferase transactivation assay in LNCaP cells transfected with ARR2-Luc", "settings": "18 h", "experimental": "Luciferase Transactivation Assay: Transcriptional activation assay is carried out as described previously by Kim et al., above, with minor modifications. […] The pRL-null (Promega) is used as the internal control. […] Luciferase activities are measured in triplicates by using dual luciferase assay system according to the manufacturer's instruction (Promega).\nThe bars represent the mean light units [counts per second (cps)/unit protein, i.e., relative luciferase activity] in triplicate wells from three separate experiments."}, "[6]": {"tested_on": "LNCaP cells", "assay": "LNCaP cell growth, WST-1 viability assay", "experimental": "(§1) To determine the effect of novel compounds on cell proliferation, cells are transferred into steroid-free medium three days prior to the start of the experiments. Steroid-free medium consisted of phenol red free RPMI supplemented with 5% dextran-coated, charcoal treated serum, and 1% penicillin/streptomycin solution. Growth studies are then performed by plating cells (3×10^4) in 24-well multi-well dishes (Corning, Inc. Corning, N.Y.). After a 24 hours attachment period, the medium is aspirated and replaced with steroid-free medium containing vehicle or the indicated concentration of DHT (1 nM) and compounds (0.1 μM-10 μM). Control wells are treated with vehicle (ethanol). This medium is changed every three days and the number of viable cells is compared by WST-1 [4-[3-(4-iodophenyl)-2-(4-nitrophenyl)-2H-5-tetrazolio]-1,3-benzene disulfonate] assay on the seventh day. Following incubation of cells for the above-mentioned time, 10% WST-1 solution is added to each well and incubated at 37° C. for three hours. Following incubation, plates are slightly shaken and immediately read at 450 nm with a scanning multi-well spectrophotometer. All results represent the average of a minimum of three wells. Additional control consists of medium alone with no cells.\n(§2) Cells were grown in steroid-free medium before plating."}, "[7]": {"tested_on": "LAPC4 cells", "assay": "LAPC4 cell growth, WST-1 viability assay", "experimental": "as §1, §2"}, "[8]": {"tested_on": "LAPC4 human prostate tumor xenograft", "assay": "LAPC4 xenograft, second experiment (treatment from day after inoculation)", "type": "in vivo, mouse", "from_the_text": "The second in vivo experiment tests the ability of 5 to inhibit the growth of LAPC4 prostate cancer cells growing in SCID mice, and 16 (Chart 1), a previously identified potent CYP17 inhibitor/antiandrogen (Gregoriyev et al. and Njar et al., J. Med. Chem., 1998, 41, 902-912, above) and castration are used as reference treatments. In this experiment, treatment begins on the day that mice were inoculated subcutaneously with hormone-dependent LAPC4 cells and are castrated or injected sc twice daily with 5 or 16.\nIn Vivo Antitumor Studies (LAPC-4 Prostate Cancer Xenografts): All animal studies are performed according to the guidelines and approval of the Animal Care Committee of the University of Maryland School of Medicine, Baltimore. Male severe combined immunodeficient (SCID) mice 4-6 weeks of age purchased from the National Cancer Institute-Frederick Cancer Research and Development Center (Fredrick, Md.) are housed in a pathogen-free environment under controlled conditions of light and humidity and allowed free access to food and water. Tumors are developed from LAPC4 cells inoculated subcutaneously (s.c.) in the mice essentially as previously described (21). LAPC4 cells are grown in IMEM with 15% FBS plus 1% PS and 10 nm DHT until 80% confluent. Cells are scraped into DPBS, collected by centrifugation, and resuspended in Matrigel (10 mg/ml) at 3×10^7 cells/ml. Mice are injected s.c. with 100 μl of the cell suspension at one site on each flank. Tumors are measured weekly with calipers, and tumor volumes are calculated by the formula: […]).\nIn the second experiment, mice are inoculated with LAPC4 cells and are divided into four groups of 5 mice each. The control and castrated group receiv vehicle, while the other two groups receiv either VN/85-1 (0.15 mmol/kg twice-daily, 9 a.m. and 5 p.m.) or 5 (0.15 mmol/kg twice-daily, 9 a.m. and 5 p.m.). These treatments are initiated one day after LAPC4 cell inoculation; continued for 14 weeks for control group, 19 weeks (for VN/85-1 and castration groups) and for 21 weeks for 5 treated group and tumors are measured and processed as described above.\nFIG. 7: The effects of 5, 16, and orchidectomy on the formation and growth of LAPC4 prostate tumors in male SCID mice. 3×10^7 LAPC-4 cells were injected s.c. into the dorsal flank of SCID mice. One group of mice was castrated. The other groups of mice received either vehicle or 5 (0.15 mmol/kg twice-daily) or 16 (0.15 mmol/kg twice-daily). Daily treatment with 5 or 16 was initiated 1 day after cell inoculation. Tumors volumes were measured weekly, and the percentage of change in tumor volume was determined after 16 weeks of treatment * Indicates significant difference of 5 versus control, castration and 16 at week 14 (P 0.00065, 0.05 and 0.0097, respectively). ** Indicates significant difference of 5 versus castration and 16 at week 16 (P=0.047 and 0.0047, respectively). ↓-↓↓: Period of reduced administered dose of 5."}, "[9]": {"settings": "read-out: CYP17 IC50, intact P450c17-expressing E. coli, substrate [21-3H]-17α-hydroxypregnenolone"}}, "note": "Where two headings read alike, the source gives them in different places."}
{"smiles": "C[C@]12CC[C@H](O)CC1=CCC1C2CC[C@]2(C)C(n3nnc4ccccc43)=CCC12", "note": "(stereo partly drawn) [Compound 9, 3β-Hydroxy-17-(benzo-1H-1,2,3-triazol-1-yl)androsta-5,16-diene]", "values": [{"measurement": "melting point", "value": "241 to 244", "unit": "°C"}, {"measurement": "5α-Reductase type 1 % inhibition at 10 μM", "setting": "[1]; 10 μM, DU-145 cells, substrate 5 nM [1β-3H]androstenedione", "value": "ni^f"}, {"measurement": "peak position of Soret maximum of the enzyme complex", "setting": "[2]", "value": 426}, {"measurement": "type of difference spectrum induced", "setting": "[2]", "value": "type II difference spectrum"}, {"measurement": "inhibition at 10 µM", "setting": "[3]", "value": 17, "unit": "%"}, {"measurement": "IC50", "setting": "[4]; [9]", "value": 1250, "unit": "nM"}]}
{"smiles": "CC(O)(CS(=O)(=O)c1ccc(F)cc1)C(=O)Nc1ccc(C#N)c(C(F)(F)F)c1", "note": "(stereo not shown) [Casodex]", "values": [{"measurement": "effect on luciferase activity, compound alone", "setting": "[5]; 0.1 and 10.0 μM, without DHT", "value": "no effect"}, {"measurement": "effect on luciferase expression induced by 1.0 nM DHT", "setting": "[5]; with 1.0 nM DHT", "value": "decreased in a concentration-dependent manner"}, {"measurement": "IC50", "setting": "[6]; Homo sapiens, LNCaP, 168 h, read-out: IC50, inhibition of DHT-induced LNCaP cell proliferation, 1 nM DHT, 7 days, WST-1", "value": 8600, "unit": "nM"}, {"measurement": "IC50", "setting": "[7]; Homo sapiens, LAPC4, 168 h, read-out: IC50, inhibition of LAPC4 cell proliferation, 10 nM DHT, 7 days, WST-1", "value": 10000, "unit": "nM"}]}
{"smiles": "C[C@]12CC[C@H](O)CC1=CC[C@@H]1[C@@H]2CC[C@]2(C)C(c3cccnc3)=CC[C@@H]12", "note": "[Abiraterone, reference compound]", "values": [{"measurement": "IC50", "setting": "[4]", "value": 800, "unit": "nM"}]}
{"smiles": "C[C@]12CCC(=O)C[C@@H]1CC[C@@H]1[C@@H]2CC[C@]2(C)[C@@H](O)CC[C@@H]12", "note": "[DHT, dihydrotestosterone]", "values": [{"measurement": "increase of luciferase expression", "setting": "[5]; 1.0 nM", "value": "approximately 99.6 fold"}, {"measurement": "stimulation of LNCaP cell proliferation compared to vehicle-treated cells", "setting": "[6]; 1 nM", "value": "about 2 fold"}, {"measurement": "induction of LAPC4 cell proliferation", "setting": "[7]; 10 nM", "value": "does not significantly induce cell proliferation"}]}
{"smiles": "CC(C)(C)NC(=O)[C@H]1CC[C@H]2[C@@H]3CC[C@H]4NC(=O)C=C[C@]4(C)[C@H]3CC[C@]12C", "note": "[Finasteride, reference compound]", "values": [{"measurement": "IC50", "setting": "[1]; read-out: 5α-Reductase type 1 [IC50], DU-145 cells, values in square brackets", "value": 60, "unit": "nM"}, {"measurement": "IC50", "setting": "[3]; read-out: 5α-Reductase type 2 [IC50], BPH tissue enzyme, values in square brackets", "value": 2, "unit": "nM"}]}
{"smiles": "C[C@]12CC[C@H](O)CC1=CCC1C2CC[C@]2(C)C(c3cnccn3)=CCC12", "note": "(stereo partly drawn) [Compound 14, 3β-Hydroxy-17-(2-pyrazyl)-androsta-5,16-diene]", "values": [{"measurement": "IC50", "setting": "[4]; [9]", "value": 3810, "unit": "nM"}]}
{"smiles": "C[C@]12CC[C@H](O)CC1=CC[C@@H]1[C@@H]2CC[C@]2(C)C(n3ccnc3)=CC[C@@H]12", "note": "[VN/85-1, 3β-hydroxy-17-(1H-imidazole-1-yl)androsta-5,16-diene]", "values": [{"measurement": "week of therapy at which palpable and measurable tumors develop", "setting": "[8]; 0.15 mmol/kg twice-daily", "value": 11, "unit": "week"}, {"measurement": "increase of tumor volume", "setting": "[8]; 0.15 mmol/kg twice-daily s.c., week 14", "value": 3.7, "unit": "fold"}, {"measurement": "reduction of tumor volume versus control mice", "setting": "[8]; 0.15 mmol/kg twice-daily s.c., week 14 (b4 prints 50 mg/kg/twice daily)", "value": 53.8, "unit": "%"}, {"measurement": "times more potent than 5 in CYP17 inhibition", "setting": "[4]", "value": 6, "unit": "times"}, {"measurement": "IC50", "setting": "[4]; [9]", "value": 50, "unit": "nM"}]}
{"smiles": "C[C@]12CC[C@H](O)CC1=CC[C@@H]1[C@@H]2CC[C@]2(C)C(c3cncnc3)=CC[C@@H]12", "note": "[Compound 15, 3β-Hydroxy-17-(5-pyrimidyl)-androsta-5,16-diene]", "values": [{"measurement": "melting point", "value": "231 to 233", "unit": "°C"}, {"measurement": "IC50", "setting": "[4]", "value": 500, "unit": "nM"}]}
{"smiles": "C[C@]12CCC(=O)C=C1CCC1C2CC[C@]2(C)C(n3nnc4ccccc43)=CCC12", "note": "(stereo partly shown) [Compound 10, 17-(benzo-1H-1,2,3-triazol-1-yl)androsta-4,16-diene-3-one]", "values": [{"measurement": "melting point", "value": "280 to 283", "unit": "°C"}, {"measurement": "inhibition at 10 µM", "setting": "[1]; read-out: 5α-Reductase type 1 % inhibition at 10 μM", "value": 21, "unit": "%"}, {"measurement": "inhibition at 10 µM", "setting": "[3]", "value": 56, "unit": "%"}, {"measurement": "IC50", "setting": "[4]; [9]", "value": 5820, "unit": "nM"}]}
